Measurements published in patent publication US11993584B2, “Solid forms of an azolopyrimidine compound” (ARCUS BIOSCIENCES, INC., priority 2018, dated 2024).

Assays:
A2AR = A2AR (Homo sapiens, UniProt P29274); details: antagonist; has been reported (U.S. Ser. No. 15/875,106, PCT/US18/14352); cited from earlier work
A2BR = target: T1, A2BR (Homo sapiens, UniProt P29275); details: antagonist; has been reported (U.S. Ser. No. 15/875,106, PCT/US18/14352); cited from earlier work
T1 sequence (P29275 1-332): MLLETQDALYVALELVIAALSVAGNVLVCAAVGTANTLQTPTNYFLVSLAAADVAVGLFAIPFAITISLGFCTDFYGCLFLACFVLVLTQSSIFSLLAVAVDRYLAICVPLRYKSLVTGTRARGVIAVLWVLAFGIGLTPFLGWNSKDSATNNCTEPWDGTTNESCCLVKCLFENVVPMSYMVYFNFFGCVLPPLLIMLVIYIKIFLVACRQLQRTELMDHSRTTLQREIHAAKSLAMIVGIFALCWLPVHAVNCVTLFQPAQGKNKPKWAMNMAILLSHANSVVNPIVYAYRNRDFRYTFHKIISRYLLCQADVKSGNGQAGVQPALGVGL

[1] = Solid-state stability of Form I under stress storage, analysis by HPLC and XRPD; format: physicochemical
Procedure: XRPD analysis was carried out on a PANalytical X'pert pro, scanning the samples between 3 and […] 2θ. The material was gently ground to release any agglomerates and loaded onto a multi-well plate with Kapton or Mylar polymer film to support the sample. The multi-well plate was then placed into the diffractometer and analyzed using Cu K radiation (α1λ=1.54060 Å; α2=1.54443 Å; β=1.39225 Å; α1: α2 ratio=0.5) running in transmission mode (step size 0.0130° 2θ) using 40 kV/40 mA generator settings.
• Instrument: Agilient 1100 • Column: Zorbax Eclipse Plus C18 150 mm×3.0 mm, 3.5 μm particle size • Column Temperature: 35° C. • Autosampler Temperature: Ambient • UV wavelength: 228 nm • Injection Volume: 3 μL • Flow Rate: 1 mL/min • Mobile Phase A: Water (0.1% formic acid in 95:5 water:ACN) • Mobile Phase B: ACN (0.1% formic acid) • Gradient program: […]
Vials containing a quantity of Form I of Compound I were subjected to a temperature of 40° C. at 75% relative humidity (RH) for one week. […] Additionally, vials containing a quantity of the crystalline material were subjected to a temperature of 80° C. in a closed vial for one week.

[2] = Dynamic vapor sorption (DVS) hygroscopicity; format: physicochemical
Procedure: Approximately 10 mg of sample was placed into a mesh vapor sorption balance pan and loaded into a DVS-1, DVS Intrinsic or DVS Advantage dynamic vapor sorption balance by Surface Measurement Systems. The sample was subjected to a ramping profile from 40-90% relative humidity (RH) at 10% increments, maintaining the sample at each step until a stable weight had been achieved (dm/dt 0.004%, minimum step length 30 min, maximum step length 500 min) at 25° C. After completion of the sorption cycle, the sample was dried using the same procedure to 0% RH and then a second sorption cycle back to 40% RH. Two cycles were performed. The weight change during the sorption/desorption cycles were plotted, allowing for the hygroscopic nature of the sample to be determined. XRPD analysis was then carried out on any solid retained.
A quantity of Compound I Form I was analyzed by dynamic vapor sorption (DVS). The sample was subjected to a ramping profile from 40-90% RH at 10% increments, maintaining the sample at each step until a stable weight had been achieved at 25° C. After completion of the sorption cycle, the sample was dried using the same procedure to 0% RH and then a second sorption cycle back to 40% RH. Two cycles were performed. The weight change during the sorption/desorption cycles were plotted, allowing for the hygroscopic nature of the sample to be determined.

[3] = Competitive 1:1 slurry experiments of the two forms; format: physicochemical; details: 1:1 slurry of Form I and Form III, variety of solvents
[4] = Qualitative dissolution of amorphous Compound I in solvents; format: physicochemical; details: 40 mg sample
Procedure: Amorphous Compound I was produced by dissolving Compound I in 1,4-dioxane and subsequent lyophilization. The amorphous solid form was confirmed by the lack of indicative peaks by XRPD. To the amorphous Compound I, solvent was added to the 12×40 mg samples to prepare slurries for thermal cycling. The material was readily soluble in many of the 12 solvents and therefore, several of the samples were thermally cycled as saturated solutions.

Sequence of A2AR (P29274 whole entry): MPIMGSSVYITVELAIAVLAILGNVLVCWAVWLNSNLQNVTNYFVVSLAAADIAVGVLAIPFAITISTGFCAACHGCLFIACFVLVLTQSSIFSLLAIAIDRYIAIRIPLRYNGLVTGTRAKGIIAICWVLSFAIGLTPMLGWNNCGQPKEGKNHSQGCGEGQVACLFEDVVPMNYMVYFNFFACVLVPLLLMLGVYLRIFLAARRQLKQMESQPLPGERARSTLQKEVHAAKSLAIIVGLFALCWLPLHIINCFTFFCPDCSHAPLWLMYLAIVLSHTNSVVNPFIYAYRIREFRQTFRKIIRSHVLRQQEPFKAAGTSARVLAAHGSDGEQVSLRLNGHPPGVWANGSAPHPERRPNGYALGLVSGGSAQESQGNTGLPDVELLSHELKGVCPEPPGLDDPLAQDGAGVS

Cc1c(C#N)cccc1-c1cc(-c2cn(Cc3cccc(C(C)(C)O)n3)nn2)nc(N)n1 [Compound I, 3-[2-amino-6-(1-{[6-(2-hydroxypropan-2-yl)pyridin-2-yl]methyl}-1H-1,2,3-triazol-4-yl)pyrimidin-4-yl]-2-methylbenzonitrile]
potency on A2AR (A2AR): less than 10 nM
potency on A2BR (A2BR): less than 10 nM

Cc1c(C#N)cccc1-c1cc(-c2cn(Cc3cccc(C(C)(C)O)n3)nn2)nc(N)n1 [Form I of Compound I, 3-[2-amino-6-(1-{[6-(2-hydroxypropan-2-yl)pyridin-2-yl]methyl}-1H-1,2,3-triazol-4-yl)pyrimidin-4-yl]-2-methylbenzonitrile]
stability (decomposition, morphology change) by HPLC and XRPD ([1]; 40° C. at 75% relative humidity (RH) for one week): stable with no decomposition or morphology change observed
stability (decomposition, morphology change) by HPLC and XRPD ([1]; 80° C. in a closed vial for one week): stable with no decomposition or change in morphology observed
hygroscopic nature ([2]; DVS, 25° C.): slightly hygroscopic
XRPD analysis of resultant solid after DVS ([2]; after two sorption/desorption cycles): no change in morphology observed
maximum absorption of water (DVS) ([2]; at 90% relative humidity, 25° C., 0-90% RH range, reversible): 1.1%
hysteresis upon cycling (DVS) ([2]; two cycles, 0-90% RH): No hysteresis was observed

Cc1c(C#N)cccc1-c1cc(-c2cn(Cc3cccc(C(C)(C)O)n3)nn2)nc(N)n1 [Form III, 3-[2-amino-6-(1-{[6-(2-hydroxypropan-2-yl)pyridin-2-yl]methyl}-1H-1,2,3-triazol-4-yl)pyrimidin-4-yl]-2-methylbenzonitrile]
form conversion in competitive slurry [3]: converted to Form I

Cc1c(C#N)cccc1-c1cc(-c2cn(Cc3cccc(C(C)(C)O)n3)nn2)nc(N)n1 [amorphous Compound I, 3-[2-amino-6-(1-{[6-(2-hydroxypropan-2-yl)pyridin-2-yl]methyl}-1H-1,2,3-triazol-4-yl)pyrimidin-4-yl]-2-methylbenzonitrile]
Slurry or Solution ([4]; 1,4-Dioxane, 200 μL): Solution
Slurry or Solution ([4]; 2-Ethoxyethanol, 200 μL): solution
Slurry or Solution ([4]; 25% Acetone/75% water, 200 μL): Solution
Slurry or Solution ([4]; 25% MeCN/75% water, 300 μL): Slurry
Slurry or Solution ([4]; Isopropanol, 400 μL): Slurry
Slurry or Solution ([4]; Isopropyl acetate, 200 μL): Solution
Slurry or Solution ([4]; Methanol, 200 μL): Solution
Slurry or Solution ([4]; THF, 200 μL): Solution
Slurry or Solution ([4]; Toluene, 700 μL): Slurry
Slurry or Solution ([4]; acetonitrile, 400 μL): Slurry
Slurry or Solution ([4]; dichloromethane, 200 μL): Solution
Slurry or Solution ([4]; water, 700 μL): slurry
